Laboratory results taken from PubChem BioAssay AID2060501 (Molecular Pharmacology Branch, DTP, NCI, 2025).

System: 282377-053-R-J1-PDC complex spheroids, viability
Assay: Anticancer human tumor 282377-053-R-J1-PDC patient-derived colon adenocarcinoma cell line growth inhibition [GQUAD]
Conditions: for IC50: curve of first compound; for viability, T/C: stronger effect = lower value
How it was run: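 Viability of tumor cells grown as complex spheroids with endothelial and stromal cells, exposed to drug combinations. Top concentration at or near clinical Cmax (else 10 microM), diluted in half-log increments.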

[1] = second compound 0.0316 µM, first compound 0.0316 µM
[2] = second compound 0.0316 µM, first compound 0.1 µM
[3] = second compound 0.0316 µM, first compound 0.316 µM
[4] = second compound 0.0316 µM, first compound 1 µM
[5] = second compound 0.0316 µM, first compound 3.16 µM
[6] = second compound 0.0316 µM, first compound 10 µM
[7] = second compound 0.1 µM, first compound 0.0316 µM
[8] = second compound 0.1 µM, first compound 0.1 µM
[9] = second compound 0.1 µM, first compound 0.316 µM
[10] = second compound 0.1 µM, first compound 1 µM
[11] = second compound 0.1 µM, first compound 3.16 µM
[12] = second compound 0.1 µM, first compound 10 µM
[13] = second compound 0.316 µM, first compound 0.0316 µM
[14] = second compound 0.316 µM, first compound 0.1 µM
[15] = second compound 0.316 µM, first compound 0.316 µM
[16] = second compound 0.316 µM, first compound 1 µM
[17] = second compound 0.316 µM, first compound 3.16 µM
[18] = second compound 0.316 µM, first compound 10 µM
[19] = second compound 1 µM, first compound 0.0316 µM
[20] = second compound 1 µM, first compound 0.1 µM
[21] = second compound 1 µM, first compound 0.316 µM
[22] = second compound 1 µM, first compound 1 µM
[23] = second compound 1 µM, first compound 3.16 µM
[24] = second compound 1 µM, first compound 10 µM
[25] = second compound 3.16 µM, first compound 0.0316 µM
[26] = second compound 3.16 µM, first compound 0.1 µM
[27] = second compound 3.16 µM, first compound 0.316 µM
[28] = second compound 3.16 µM, first compound 1 µM
[29] = second compound 3.16 µM, first compound 3.16 µM
[30] = second compound 3.16 µM, first compound 10 µM
[31] = second compound 10 µM, first compound 0.0316 µM
[32] = second compound 10 µM, first compound 0.1 µM
[33] = second compound 10 µM, first compound 0.316 µM
[34] = second compound 10 µM, first compound 1 µM
[35] = second compound 10 µM, first compound 3.16 µM
[36] = second compound 10 µM, first compound 10 µM
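Also: spheroids exposed to compounds for 7 days before readout.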
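For viability, T/C in this document: percent of vehicle DMSO control viability with 100% = untreated-like growth.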

O=C(NO)c1cnc(N2CCN(S(=O)(=O)c3ccc4ccccc4c3)CC2)nc1 + Cc1[nH]c2ccc(F)cc2c1-c1nc2c3cccnc3c3ncccc3c2[nH]1
IC50 (second compound 0.0316 µM): 0.0563 µM
IC50 (second compound 0.1 µM): 0.0553 µM
IC50 (second compound 0.316 µM): 0.0452 µM
IC50 (second compound 1 µM): 0.0402 µM
IC50 (second compound 3.16 µM): < 0.0316 µM
IC50 (second compound 10 µM): < 0.0316 µM
viability, T/C [1]: 78%
viability, T/C [2]: 17.6%
viability, T/C [3]: 18.6%
viability, T/C [4]: 19.8%
viability, T/C [5]: 24%
viability, T/C [6]: 30.6%
viability, T/C [7]: 78%
viability, T/C [8]: 18.6%
viability, T/C [9]: 16.4%
viability, T/C [10]: 18.6%
viability, T/C [11]: 21.2%
viability, T/C [12]: 26.9%
viability, T/C [13]: 63.6%
viability, T/C [14]: 18.4%
viability, T/C [15]: 17.1%
viability, T/C [16]: 18.1%
viability, T/C [17]: 21.4%
viability, T/C [18]: 22.9%
viability, T/C [19]: 58.7%
viability, T/C [20]: 15.1%
viability, T/C [21]: 19.3%
viability, T/C [22]: 13.7%
viability, T/C [23]: 16.1%
viability, T/C [24]: 21.8%
viability, T/C [25]: 30.5%
viability, T/C [26]: 7.85%
viability, T/C [27]: 7.14%
viability, T/C [28]: 6.02%
viability, T/C [29]: 6.61%
viability, T/C [30]: 7.81%
viability, T/C [31]: 19.7%
viability, T/C [32]: 7.83%
viability, T/C [33]: 5.03%
viability, T/C [34]: 6.51%
viability, T/C [35]: 4.71%
viability, T/C [36]: 7.67%

CC1COCCN1c1cc(C2(O)CC3CCC(C2)O3)c2cnn(-c3ccn[nH]3)c2n1 (stereo not drawn) + Cc1cnc(CNC(=O)c2c(=O)c3ccc(N4CCCN(C)CC4)nc3n3c2sc2ccccc23)cn1
IC50 (second compound 0.0316 µM): 0.134 µM
IC50 (second compound 0.1 µM): 0.0739 µM
IC50 (second compound 0.316 µM): < 0.0316 µM
IC50 (second compound 1 µM): < 0.0316 µM
IC50 (second compound 3.16 µM): < 0.0316 µM
IC50 (second compound 10 µM): < 0.0316 µM
viability, T/C [1]: 96.4%
viability, T/C [2]: 49.5%
viability, T/C [3]: 39.7%
viability, T/C [4]: 24.6%
viability, T/C [5]: 20.5%
viability, T/C [6]: 12.6%
viability, T/C [7]: 71.9%
viability, T/C [8]: 41.3%
viability, T/C [9]: 27.6%
viability, T/C [10]: 26.8%
viability, T/C [11]: 21.8%
viability, T/C [12]: 15.1%
viability, T/C [13]: 50.1%
viability, T/C [14]: 34.8%
viability, T/C [15]: 28.8%
viability, T/C [16]: 22.9%
viability, T/C [17]: 17.7%
viability, T/C [18]: 15%
viability, T/C [19]: 42%
viability, T/C [20]: 25.9%
viability, T/C [21]: 28.7%
viability, T/C [22]: 23.1%
viability, T/C [23]: 21.8%
viability, T/C [24]: 14.3%
viability, T/C [25]: 33.6%
viability, T/C [26]: 23.4%
viability, T/C [27]: 23.8%
viability, T/C [28]: 21.7%
viability, T/C [29]: 18.6%
viability, T/C [30]: 10.6%
viability, T/C [31]: 32.8%
viability, T/C [32]: 20.1%
viability, T/C [33]: 22.2%
viability, T/C [34]: 18%
viability, T/C [35]: 17%
viability, T/C [36]: 0.6%

CC1COCCN1c1cc(C2(S(C)(=N)=O)CC2)nc(-c2ccnc3[nH]ccc23)n1 (stereo not drawn) + Cc1cnc(CNC(=O)c2c(=O)c3ccc(N4CCCN(C)CC4)nc3n3c2sc2ccccc23)cn1
IC50 (second compound 0.0316 µM): > 10 µM
IC50 (second compound 0.1 µM): 4.51 µM
IC50 (second compound 0.316 µM): 5.63 µM
IC50 (second compound 1 µM): 3.78 µM
IC50 (second compound 3.16 µM): 3.52 µM
IC50 (second compound 10 µM): < 0.0316 µM
viability, T/C [1]: 94.2%
viability, T/C [2]: 78.7%
viability, T/C [3]: 96.2%
viability, T/C [4]: 89.1%
viability, T/C [5]: 61.1%
viability, T/C [6]: 50.6%
viability, T/C [7]: 99.5%
viability, T/C [8]: 115%
viability, T/C [9]: 94.4%
viability, T/C [10]: 76.2%
viability, T/C [11]: 59.1%
viability, T/C [12]: 35.4%
viability, T/C [13]: 83.2%
viability, T/C [14]: 92.2%
viability, T/C [15]: 97.1%
viability, T/C [16]: 81%
viability, T/C [17]: 64.3%
viability, T/C [18]: 36.3%
viability, T/C [19]: 68.4%
viability, T/C [20]: 79.2%
viability, T/C [21]: 70.9%
viability, T/C [22]: 61%
viability, T/C [23]: 55.6%
viability, T/C [24]: 30%
viability, T/C [25]: 49.1%
viability, T/C [26]: 56.1%
viability, T/C [27]: 68.5%
viability, T/C [28]: 50.1%
viability, T/C [29]: 52.2%
viability, T/C [30]: 34.6%
viability, T/C [31]: 42.1%
viability, T/C [32]: 52%
viability, T/C [33]: 54.5%
viability, T/C [34]: 43.9%
viability, T/C [35]: 43.1%
viability, T/C [36]: 29.1%

COc1ccc([C@@H](O)c2cc(-c3ncnc4cc(N5CCOCC5)ccc34)c(F)cc2Cl)nn1 + Cc1cnc(CNC(=O)c2c(=O)c3ccc(N4CCCN(C)CC4)nc3n3c2sc2ccccc23)cn1
IC50 (second compound 0.0316 µM): > 10 µM
IC50 (second compound 0.1 µM): 8.31 µM
IC50 (second compound 0.316 µM): 3.51 µM
IC50 (second compound 1 µM): 0.328 µM
IC50 (second compound 3.16 µM): 0.0778 µM
IC50 (second compound 10 µM): < 0.0316 µM
viability, T/C [1]: 97%
viability, T/C [2]: 82.7%
viability, T/C [3]: 118%
viability, T/C [4]: 78.1%
viability, T/C [5]: 73.6%
viability, T/C [6]: 72%
viability, T/C [7]: 117%
viability, T/C [8]: 113%
viability, T/C [9]: 93.8%
viability, T/C [10]: 77.3%
viability, T/C [11]: 66%
viability, T/C [12]: 46.4%
viability, T/C [13]: 79.2%
viability, T/C [14]: 84.8%
viability, T/C [15]: 69.9%
viability, T/C [16]: 66.3%
viability, T/C [17]: 51.2%
viability, T/C [18]: 36.5%
viability, T/C [19]: 61.1%
viability, T/C [20]: 52%
viability, T/C [21]: 55.5%
viability, T/C [22]: 42%
viability, T/C [23]: 41.3%
viability, T/C [24]: 37.3%
viability, T/C [25]: 56.3%
viability, T/C [26]: 48.2%
viability, T/C [27]: 43.3%
viability, T/C [28]: 42.9%
viability, T/C [29]: 41.5%
viability, T/C [30]: 39.2%
viability, T/C [31]: 47%
viability, T/C [32]: 45.3%
viability, T/C [33]: 44.5%
viability, T/C [34]: 39.9%
viability, T/C [35]: 35.5%
viability, T/C [36]: 30.8%
